Test results taken from patent US20250011368A1, “DLL3 TARGETING PEPTIDES AND CONSTRUCTS THEREOF” (MARIANA ONCOLOGY INC., priority 2023, published 2025).
pKd: −log10 of the molar value. Numbered stars: 1 amine (or outer) side, 2 acyl side, 3 side chain; on linkers, the order of the positions; unused ones are H or OH. Bridge positions count the residues as written; N and C are the ends. Square brackets hold non-standard residues; d marks the D form. Peptide text beside a SMILES is read from it. * marks the point of attachment. X4 = O=C(O)CN1CCN(CC(=O)O)CCN(CC(=O)N[C@H]2CC[C@H](CC(=O)*)CC2)CCN(CC(=O)O)CC1; Ala(piperidin-4-yl) = O=C([C@H](CC1CCN([*:3])CC1)N[*:1])[*:2]; DOTA = O=C(O)CN1CCN(CC(=O)O)CCN(CC(=O)*)CCN(CC(=O)O)CC1; 2Nal = N[C@@H](Cc1ccc2ccccc2c1)C(=O)O; tBuAla = CC(C)(C)C[C@H](N)C(=O)O; 3Pal = N[C@@H](Cc1cccnc1)C(=O)O; Chg = N[C@H](C(=O)O)C1CCCCC1; Tle = CC(C)(C)[C@H](N)C(=O)O

Target: T1, human DLL3 (Homo sapiens, UniProt Q9NYJ7)
T1 sequence (Q9NYJ7 27-618): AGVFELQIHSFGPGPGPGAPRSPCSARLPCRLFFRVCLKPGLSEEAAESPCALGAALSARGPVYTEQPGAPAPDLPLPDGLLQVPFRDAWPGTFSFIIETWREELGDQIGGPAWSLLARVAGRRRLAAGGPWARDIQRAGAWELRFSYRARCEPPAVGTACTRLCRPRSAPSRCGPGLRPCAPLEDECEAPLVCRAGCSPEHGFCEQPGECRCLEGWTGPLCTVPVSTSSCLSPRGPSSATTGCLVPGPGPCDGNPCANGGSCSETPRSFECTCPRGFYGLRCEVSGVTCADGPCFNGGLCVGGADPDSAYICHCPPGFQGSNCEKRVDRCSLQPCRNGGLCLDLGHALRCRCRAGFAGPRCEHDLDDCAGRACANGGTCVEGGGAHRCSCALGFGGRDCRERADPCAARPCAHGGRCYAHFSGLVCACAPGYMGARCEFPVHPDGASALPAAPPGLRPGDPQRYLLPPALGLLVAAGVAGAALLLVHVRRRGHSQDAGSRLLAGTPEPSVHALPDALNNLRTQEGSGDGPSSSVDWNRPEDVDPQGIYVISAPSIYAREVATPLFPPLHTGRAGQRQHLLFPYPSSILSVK
Experiment: Affinity determination by Surface Plasmon Resonance (SPR)
Assay type: binding
Conditions: 25° C., biotinylated human DLL3 immobilized on streptavidin sensor chip, 1:1 binding model; read-out: SPR KD
In short: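 Kinetic and affinity constants were derived by fitting sensorgrams to a 1:1 binding model. Graded compound concentrations flowed at 100 μL/minute in 20 mM phosphate running buffer with 2% DMSO over streptavidin-immobilized biotinylated human DLL3, reference-subtracted.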

| SMILES | pKd |
| --- | --- |
| CC[C@H](C)[C@H](NC(=O)[C@@H](NC(=O)[C@H](Cc1c[nH]c2ccccc12)NC(C)=O)[C@@H](C)O)C(=O)N[C@H]1CSSC[C@@H](C(=O)N[C@@H](Cc2c[nH]c3ccccc23)C(=O)N2CCC[C@H]2C(=O)N[C@H](CCCCNC(=O)CN2CCN(CC(=O)O)CCN(CC(=O)O)CCN(CC(=O)O)CC2)C(N)=O)NC(=O)[C@H](CC(=O)O)NC(=O)[C@H](CCC(=O)O)NC(=O)[C@H](Cc2c[nH]c3ccccc23)NC(=O)[C@H](CCC(=O)O)NC(=O)[C@H](CC(N)=O)NC1=O [compound 276, Ac-W-T-I-C(3)-N-Glu-W-Glu-D-C(3)-W-P-[D-Lys(DOTA)]-NH2] (Ac-WTICNEWEDCWP[dK](DOTA)-NH2; disulfide 4-10) | 7.00 to 8.00 |
| CC[C@H](C)[C@H](NC(=O)[C@@H](NC(=O)[C@H](Cc1c[nH]c2ccccc12)NC(C)=O)[C@@H](C)O)C(=O)N[C@H]1CSSC[C@@H](C(=O)N[C@@H](Cc2c[nH]c3ccccc23)C(=O)N2CCC[C@H]2C(=O)N[C@H](CCCCNC(=O)CN2CCN(CC(=O)O)CCN(CC(=O)O)CCN(CC(=O)O)CC2)C(N)=O)NC(=O)[C@H](CC(=O)O)NC(=O)[C@H](Cc2cnc[nH]2)NC(=O)[C@H](Cc2c[nH]c3ccccc23)NC(=O)[C@H](CC(N)=O)NC(=O)[C@H](CCC(=O)O)NC1=O [compound 277, Ac-W-T-I-C(3)-Glu-N-W-H-D-C(3)-W-P-[D-Lys(DOTA)]-NH2] (Ac-WTICENWHDCWP[dK](DOTA)-NH2; disulfide 4-10) | > 9.00 |
| CC[C@H](C)[C@H](NC(=O)[C@@H](NC(=O)[C@H](Cc1c[nH]c2ccccc12)NC(C)=O)[C@@H](C)O)C(=O)N[C@H]1CSSC[C@@H](C(=O)N[C@@H](Cc2c[nH]c3ccccc23)C(=O)N2CCC[C@H]2C(=O)N[C@H](CCCCNC(=O)CN2CCN(CC(=O)O)CCN(CC(=O)O)CCN(CC(=O)O)CC2)C(N)=O)NC(=O)[C@H](CC(=O)O)NC(=O)[C@H](Cc2cnc[nH]2)NC(=O)[C@H](Cc2c[nH]c3ccccc23)NC(=O)[C@H](CCC(=O)O)NC(=O)[C@H](CCC(=O)O)NC1=O [compound 278, Ac-W-T-I-C(3)-Glu-Glu-W-H-D-C(3)-W-P-[D-Lys(DOTA)]-NH2] (Ac-WTICEEWHDCWP[dK](DOTA)-NH2; disulfide 4-10) | 8.00 to 9.00 |
| CC[C@H](C)[C@H](NC(=O)[C@@H](NC(=O)[C@H](Cc1c[nH]c2ccccc12)NC(C)=O)[C@@H](C)O)C(=O)N[C@H]1CSSC[C@@H](C(=O)N[C@@H](Cc2c[nH]c3ccccc23)C(=O)N2CCC[C@H]2C(=O)N[C@H](CCCCNC(=O)CN2CCN(CC(=O)O)CCN(CC(=O)O)CCN(CC(=O)O)CC2)C(N)=O)NC(=O)[C@H](CC(=O)O)NC(=O)[C@H](Cc2cnc[nH]2)NC(=O)[C@H](Cc2c[nH]c3ccccc23)NC(=O)[C@H](CCC(=O)O)NC(=O)[C@H](CC(N)=O)NC1=O [compound 279, Ac-W-T-I-C(3)-N-Glu-W-H-D-C(3)-W-P-[D-Lys(DOTA)]-NH2] (Ac-WTICNEWHDCWP[dK](DOTA)-NH2; disulfide 4-10) | 8.00 to 9.00 |
| CC(=O)N[C@@H](Cc1c[nH]c2ccccc12)C(=O)N[C@H](C(=O)N[C@H](C(=O)N[C@H]1CSSC[C@@H](C(=O)N[C@@H](Cc2c[nH]c3ccccc23)C(=O)N2CCC[C@H]2C(=O)N[C@H](CCCCNC(=O)CN2CCN(CC(=O)O)CCN(CC(=O)O)CCN(CC(=O)O)CC2)C(N)=O)NC(=O)[C@H](CC(=O)O)NC(=O)[C@H](Cc2cnc[nH]2)NC(=O)[C@H](Cc2ccc3ccccc3c2)NC(=O)[C@H](CC(N)=O)NC(=O)[C@H](CC2CCNCC2)NC1=O)C(C)(C)C)[C@@H](C)O [compound 281, Ac-W-T-(Tbg)-C(3)-[3-(4-piperidinyl)-Ala]-N-(2Nal)-H-D-C(3)-W-P-[D-Lys(DOTA)]-NH2] (Ac-WT[Tle]C[Ala(piperidin-4-yl)]N[2Nal]HDCWP[dK](DOTA)-NH2; disulfide 4-10) | > 9.00 |
| CC(=O)N[C@@H](Cc1c[nH]c2ccccc12)C(=O)N[C@H](C(=O)N[C@@H](CC(C)(C)C)C(=O)N[C@H]1CSSC[C@@H](C(=O)N[C@@H](Cc2c[nH]c3ccccc23)C(=O)N2CCC[C@H]2C(=O)N[C@H](CCCCNC(=O)CN2CCN(CC(=O)O)CCN(CC(=O)O)CCN(CC(=O)O)CC2)C(N)=O)NC(=O)[C@H](CC(=O)O)NC(=O)[C@H](Cc2cnc[nH]2)NC(=O)[C@H](Cc2ccc3ccccc3c2)NC(=O)[C@H](CC(N)=O)NC(=O)[C@H](CC2CCNCC2)NC1=O)[C@@H](C)O [compound 282, Ac-W-T-(t-Bu-Ala)-C(3)-[3-(4-piperidinyl)-Ala]-N-(2Nal)-H-D-C(3)-W-P-[D-Lys(DOTA)]-NH2] (Ac-WT[tBuAla]C[Ala(piperidin-4-yl)]N[2Nal]HDCWP[dK](DOTA)-NH2; disulfide 4-10) | > 9.00 |
| CC(=O)N[C@@H](Cc1c[nH]c2ccccc12)C(=O)N[C@H](C(=O)N[C@H](C(=O)N[C@H]1CSSC[C@@H](C(=O)N[C@@H](Cc2c[nH]c3ccccc23)C(=O)N2CCC[C@H]2C(=O)N[C@H](CCCCNC(=O)CN2CCN(CC(=O)O)CCN(CC(=O)O)CCN(CC(=O)O)CC2)C(N)=O)NC(=O)[C@H](CC(N)=O)NC(=O)[C@H](Cc2cnc[nH]2)NC(=O)[C@H](Cc2ccc3ccccc3c2)NC(=O)[C@H](CC(N)=O)NC(=O)[C@H](CC2CCNCC2)NC1=O)C1CCCCC1)[C@@H](C)O [compound 283, Ac-W-T-(Chg)-C(3)-[3-(4-piperidinyl)-Ala]-N-(2Nal)-H-(Asn)-C(3)-W-P-[D-Lys(DOTA)]-NH2] (Ac-WT[Chg]C[Ala(piperidin-4-yl)]N[2Nal]HNCWP[dK](DOTA)-NH2; disulfide 4-10) | > 9.00 |
| CC(=O)N[C@@H](Cc1c[nH]c2ccccc12)C(=O)N[C@H](C(=O)N[C@H](C(=O)N[C@H]1CSSC[C@@H](C(=O)N[C@@H](Cc2c[nH]c3ccccc23)C(=O)N2CCC[C@H]2C(=O)N[C@H](CCCCNC(=O)CN2CCN(CC(=O)O)CCN(CC(=O)O)CCN(CC(=O)O)CC2)C(N)=O)NC(=O)[C@H](C)NC(=O)[C@H](Cc2cnc[nH]2)NC(=O)[C@H](Cc2ccc3ccccc3c2)NC(=O)[C@H](CC(N)=O)NC(=O)[C@H](CC2CCNCC2)NC1=O)C1CCCCC1)[C@@H](C)O [compound 284, Ac-W-T-(Chg)-C(3)-[3-(4-piperidinyl)-Ala]-N-(2Nal)-H-(Ala)-C(3)-W-P-[D-Lys(DOTA)]-NH2] (Ac-WT[Chg]C[Ala(piperidin-4-yl)]N[2Nal]HACWP[dK](DOTA)-NH2; disulfide 4-10) | > 9.00 |
| CC(=O)N[C@@H](Cc1c[nH]c2ccccc12)C(=O)N[C@H](C(=O)N[C@H](C(=O)N[C@H]1CSSC[C@@H](C(=O)N[C@@H](Cc2c[nH]c3ccccc23)C(=O)N2CCC[C@H]2C(=O)N[C@H](CCCCNC(=O)CN2CCN(CC(=O)O)CCN(CC(=O)O)CCN(CC(=O)O)CC2)C(N)=O)NC(=O)[C@H]([C@@H](C)O)NC(=O)[C@H](Cc2cnc[nH]2)NC(=O)[C@H](Cc2ccc3ccccc3c2)NC(=O)[C@H](CC(N)=O)NC(=O)[C@H](CC2CCNCC2)NC1=O)C1CCCCC1)[C@@H](C)O [compound 285, Ac-W-T-(Chg)-C(3)-[3-(4-piperidinyl)-Ala]-N-(2Nal)-H-(Thr)-C(3)-W-P-[D-Lys(DOTA)]-NH2] (Ac-WT[Chg]C[Ala(piperidin-4-yl)]N[2Nal]HTCWP[dK](DOTA)-NH2; disulfide 4-10) | > 9.00 |
| CC(=O)N[C@@H](Cc1c[nH]c2ccccc12)C(=O)N[C@H](C(=O)N[C@H](C(=O)N[C@H]1CSSC[C@@H](C(=O)N[C@@H](Cc2c[nH]c3ccccc23)C(=O)N2CCC[C@H]2C(=O)N[C@H](CCCCNC(=O)C[C@H]2CC[C@H](NC(=O)CN3CCN(CC(=O)O)CCN(CC(=O)O)CCN(CC(=O)O)CC3)CC2)C(N)=O)NC(=O)[C@H](CC(=O)O)NC(=O)[C@H](Cc2c[nH]cn2)NC(=O)[C@H](Cc2ccc3ccccc3c2)NC(=O)[C@H](CC(N)=O)NC(=O)[C@H](CC2CCNCC2)NC1=O)C1CCCCC1)[C@@H](C)O [compound 286, Ac-W-T-(Chg)-C(3)-[3-(4-piperidinyl)-Ala]-N-(2Nal)-H-D-C(3)-W-P-[D-Lys(Chx-DOTA)]-NH2] (Ac-WT[Chg]C[Ala(piperidin-4-yl)]N[2Nal]HDCWP[dK](X4)-NH2; disulfide 4-10) | > 9.00 |
| CC(=O)N[C@@H](Cc1c[nH]c2ccccc12)C(=O)N[C@H](C(=O)N[C@H](C(=O)N[C@H]1CSSC[C@@H](C(=O)N[C@@H](Cc2c[nH]c3ccccc23)C(=O)N2CCC[C@H]2C(=O)N[C@H](CCCCNC(=O)CN2CCN(CC(=O)O)CCN(CC(=O)O)CCN(CC(=O)O)CC2)C(N)=O)NC(=O)[C@H](CC(=O)O)NC(=O)[C@H](Cc2cnc[nH]2)NC(=O)[C@H](Cc2ccc3ccccc3c2)NC(=O)[C@H](CC(N)=O)NC(=O)[C@H](Cc2cccnc2)NC1=O)C1CCCCC1)[C@@H](C)O [compound 287, Ac-W-T-(Chg)-C(3)-(3Pya)-N-(2Nal)-H-D-C(3)-W-P-[D-Lys(DOTA)]-NH2] (Ac-WT[Chg]C[3Pal]N[2Nal]HDCWP[dK](DOTA)-NH2; disulfide 4-10) | > 9.00 |
